Values after ≈ are worked out from the molar mass of the structure shown. Read-outs that look alike come from different tables or passages of the source. Each block holds one compound with its values, some of them ahead of it.
Legend:
L-929 cell line = test: Neutral red uptake assay, L-929 cell line (primary screening); format: cell-based, mouse; conditions: normal cell line L-929
Method: (§1) L-929 (mouse C3H/An connective tissue), Caco-2 (human colon adenocarcinoma), A172 (human glioblastoma), AGS (human gastric adenocarcinoma), HepaRG (human hepatoma cell), and HeLa (human cervix epithelioid carcinoma) cell lines were obtained from the European Collection of Authenticated Cell Cultures (ECACC) and provided by Sigma Aldrich/Merck (Munich, Germany). All cell lines were cultured in complete mediums prepared according to the ECACC recommendations and incubated in a humidified atmosphere with 5% CO2 at 37 °C. Neutral red uptake assay was performed according to the protocol. 24 h before treatment cells were seeded in 96-well plates in 1 × 10^5 cell/mL of complete medium. After incubation and attachment of cells, the medium was discarded, and test substances dissolved in the fresh medium were added to wells. Samples were tested after 24, 48, and 72 h incubation. A neutral red working solution (40 µg/mL) was prepared and incubated overnight. Immediately before use, it was centrifuged to remove any dye crystals. The medium from wells was aspirated, and 100 µL of neutral red was added to plates and incubated for at least 2 h in 37 °C and 5% CO2 in a humidified atmosphere. To inspect the absorption of neutral red to the lysosomes, microscope visualizations were performed. After incubation, cells were washed with PBS, and destain solution containing ethanol, deionized water, and glacial acetic acid (50:49:1) was added. Plates were shaken rapidly on a horizontal shaker at 37 °C. Absorption was measured using a Thermo Scientific™ (Waltham, MA, USA) Multiskan™ GO microplate spectrophotometer at 540 nm. The negative control was a medium with 1% DMSO, and the positive control was 1 µM staurosporine. Viability was calculated according to the following formula:(1) % Viability=ODtest substance−ODblind/ODnegative control−ODblind×100 Neutral red uptake assay was performed in quadruple (n = 4). Results were calculated to mean ± standard deviation (SD) using Microsoft Office Excel 2007. The viability in negative control was compared to 100%. Statistical analyses were performed using the GraphPad Prism 8.3 for Windows (GraphPad Software, La Jolla, CA, USA, www.graphpad.com). For IC50 results, non-linear regression analyses were performed, and a sigmoidal dose-response curve (variable slope) was fitted. Differences between groups and control were tested using an ANOVA test followed by Dunnett’s post hoc analysis. The significance was set at p ≤ 0.05.

[1] = test system: Enterococcus faecalis ATCC 29212; test: Antimicrobial microdilution / modified Richards method; format: cell-based; conditions: range tested 1024 to 1 ug/mL
[2] = test system: other cell lines (Caco-2, A172, HeLa, AGS); test: Neutral red uptake assay, other neoplastic cell lines; format: cell-based, human; conditions: cell lines other than HepaRG; viability decreased at 100–1000 µM; 72 h exposure
Method: (§2) L-929 (mouse C3H/An connective tissue), Caco-2 (human colon adenocarcinoma), A172 (human glioblastoma), AGS (human gastric adenocarcinoma), HepaRG (human hepatoma cell), and HeLa (human cervix epithelioid carcinoma) cell lines were obtained from the European Collection of Authenticated Cell Cultures (ECACC) and provided by Sigma Aldrich/Merck (Munich, Germany). All cell lines were cultured in complete mediums prepared according to the ECACC recommendations and incubated in a humidified atmosphere with 5% CO2 at 37 °C. Neutral red uptake assay was performed according to the protocol. 24 h before treatment cells were seeded in 96-well plates in 1 × 10^5 cell/mL of complete medium. After incubation and attachment of cells, the medium was discarded, and test substances dissolved in the fresh medium were added to wells. Samples were tested after 24, 48, and 72 h incubation. A neutral red working solution (40 µg/mL) was prepared and incubated overnight. […] Absorption was measured using a Thermo Scientific™ (Waltham, MA, USA) Multiskan™ GO microplate spectrophotometer at 540 nm. […] Viability was calculated according to the following formula:(1) % Viability=ODtest substance−ODblind/ODnegative control−ODblind×100 Neutral red uptake assay was performed in quadruple (n = 4). Results were calculated to mean ± standard deviation (SD) using Microsoft Office Excel 2007. […]

HepaRG = test: Neutral red uptake assay, HepaRG; format: cell-based; conditions: Homo sapiens, 72 h exposure
Method: as §2

[3] = Neutral red uptake assay, L-929 cell line (primary screening); format: cell-based, mouse; conditions: mouse, L-929 cells, p < 0,05
Method: as §1

AGS cell line [4] = test: Annexin V/PI staining, flow cytometry; format: cell-based, human; conditions: 24 h incubation
Method: A quantitative analysis of apoptosis was performed by flow cytometry with Alexa Fluor 488 annexin V and PI staining (Thermo Scientific Waltham, MA, USA). Briefly, 3 × 10^5 cells were seeded in 6-well plates. After overnight incubation, the tested compound was added to wells in 5 × IC50 concentration (250 µM). Cells were incubated and tested after 6, 12, 18, and 24 h, according to the manufacturer’s protocol. After incubation, cells were harvested, washed with PBS, and resuspended in 1× binding buffer to a final concentration of 1–5 × 10^6 cell/mL. Then 5 µL of Alexa Fluor 488-annexin V was added to 100 µL of cell suspension and incubated in the dark for 15 min. After incubation, the dye was removed, and cells were suspended in 1 mL of binding buffer. Directly before analysis, cells were incubated with 1 µL PI for 2 min and analyzed by flow cytometry (using CyFlow® Space flow cytometer and FloMax software).

AGS = test: Neutral red uptake assay, AGS; format: cell-based; conditions: Homo sapiens, 72 h exposure
Method: as §2

A172 = test: Neutral red uptake assay, A172; format: cell-based; conditions: Homo sapiens, A 172, 72 h exposure
Method: as §2

HeLa = test: Neutral red uptake assay, HeLa; format: cell-based; conditions: Homo sapiens, 72 h exposure
Method: as §2

AGS cell line [5] = test: Flow cytometry viability, FDA/PI double staining; format: cell-based, human
Method: The flow cytometry analysis was performed to determine cell viability after treatment with a compound showing high proliferation inhibition in neutral red uptake assay. The test is based on FDA’s ability to pass through an intact cell membrane, where it can be hydrolyzed by cytoplasmic esterases to fluorescein, a bright green fluorophore. The protocol was based on a double-staining procedure with FDA and PI [75]. For stock solutions, FDA was dissolved in DMSO and PI in H2O to 1 mM concentrations. Cells were seeded in a 6-well plate with a density of 1 × 10^5 cell/well and maintained at 37 °C under 5% CO2 in a humidified atmosphere. After overnight incubation, cells were treated with a compound diluted to the following concentrations: 100, 80, 40, 10, and 1 µM. Flow cytometry analyses were performed after 24, 48, and 72 h incubation. For the analysis, both floating and adherent cells were collected, centrifuged at 1600 rpm, and washed with PBS. Cells were stained with FDA with a final concentration of 1 µM in PBS, and kept in the dark for 15 min. After incubation, cells were centrifuged, resuspended in ice-cold PBS, and kept on ice until analysis. Directly before testing, samples were stained with a 1 µM PI solution for 2 min. The acquisition was performed with a CyFlow® space flow cytometer, and data analyses were performed using the FloMax software (Partec, Münster, Germany). The percentage of viable cells was calculated based on FDA absorption according to the following formula:(2) % ViabilityFDA=% live cells under experimental conditions/% live cells from negative control×100

AGS cell line [6] = test: Microscopic observation of cell and nucleus morphology, Hoechst 33342; format: cell-based, human; conditions: 50 µM, 72 h
Method: Morphological changes and DNA fragmentation were examined with an Olympus IX53 inverted fluorescence microscope after staining with Hoechst 33342 according to the manufacturer’s recommendations Thermo Scientific (Waltham, MA, USA). Briefly, cells were seeded in 12-well plates with a density of 1 × 10^5 cell/mL. After overnight incubation, the test substance was added in a half-maximal inhibitory (IC50) concentration and incubated for 24, 48, and 72 h. Before microscopic observation, both adherent and floating cells were collected, centrifuged, resuspended in PBS containing 1 µg/mL Hoechst 33342 dye. After 10 min incubation in the dark, the morphology of cells and DNA were visualized using a contrast phase and a UV filter.

AGS cell line [7] = test: Comet assay (alkaline single-cell gel electrophoresis), DNA damage; format: cell-based, human; conditions: 50 µM
Method: To evaluate DNA damage induced by incubation with 3, alkaline single-cell gel electrophoresis (comet assay) was performed. Cells were seeded in 12-well plates in a density of 1 × 10^5 cell/well. After overnight incubation, the tested compound in IC50 concentration (50 µM) was added. After incubation, cells were harvested, centrifuged, and resuspended in PBS. The cell suspension was mixed with 1% low melting point agarose and attached to the slide covered with 1% normal melting point agarose. Subsequently, slides were incubated in a buffer (pH 10.0) containing 2.5 M NaCl, 10 mM Tris-HCl buffer, 100 mM EDTA, and 1% Triton X-100 for 1 h. Then samples were transferred to alkaline electrophoresis buffer containing 0.3 M […] and 1mM EDTA for a 20 min incubation followed by electrophoresis performed at 25 V and 300 mA for 20 min. After electrophoresis, samples were incubated with a neutral pH buffer (0.4 M Tris-HCl, pH 7.5) for 10 min and washed with deionized water. After air-drying, samples were stained with Hoechst 33342 and visualized with a fluorescence microscope using a UV filter. The damages were visually scored from 100 randomly selected cells. […] Based on results, the damage index (DI) was calculated according to the following formula:(3) DI=0×n0+1×n1+2×n2+3×n3+4×n4, where n stands for the amount of each class.

[8] = Enterococcus faecalis ATCC 29212
[9] = Enterococcus faecalis, ATCC29212, Enterococcus faecalis ATCC 29212, read-out: MBC
[10] = Enterococcus faecalis, ATCC29212, Enterococcus faecalis ATCC 29212, read-out: MIC

melting point: 163 to 164 °C
MIC [1, 8]: 512 µg/mL (≈ 1190 µM)
MIC [1, 10]: 1020 µg/mL (≈ 2390 µM)
IC50 [2]: IC50 was not reached
Compound: CCOc1ccc(NCc2c(C)nc(-c3ccccc3)nc2Nc2ccc(F)cc2)cc1 [Compound 2, 5-[(4-ethoxyanilino)methyl]-N-(4-fluorophenyl)-6-methyl-2-phenylpyrimidin-4-amine]
effect on L-929 survival (L-929 cell line): did not significantly affect L-929 survival
MBC [1, 8]: 1024 µg/mL (≈ 2390 µM)
MBC [1, 9]: 512 µg/mL (≈ 1190 µM)
IC50 (HepaRG): 404 µM

MIC [1, 8]: 16 µg/mL (≈ 37.5 µM)
MIC [1, 10]: 32 µg/mL (≈ 75 µM)
IC50 (AGS): 50.2 µM
IC50 (HeLa): 355 µM
IC50 (AGS cell line [5]; Homo sapiens, referred to control with 1% DMSO): 53 µM
Compound: CCOc1ccc(N=Cc2c(C)nc(-c3ccccc3)nc2Nc2ccc(F)cc2)cc1 [Compound 3, 5-[(4-ethoxyphenyl)imino]methyl-N-(4-fluorophenyl)-6-methyl-2-phenylpyrimidin-4-amine]
viability at 250 µM ([3]; L-929, 250 µM): 115%
viability at 500 µM ([3]; L-929, 500 µM): 111%
viability at 1000 µM ([3]; L-929, 1000 µM): 115%
necrotic cells (stained with PI only) (AGS cell line [4]; 250 µM, control 0.71%): 2.22%
late apoptotic cells (double-stained) (AGS cell line [4]; 250 µM, control 2.48%): 21.58%
early apoptotic cells (annexin V stained) (AGS cell line [4]; 250 µM, control 3.24%): 16.18%
viability at 250 µM (AGS cell line [4]; Homo sapiens, control 93.57%, read-out: viable cells (unstained)): 60%
MBC [1, 8]: 32 µg/mL (≈ 75 µM)
MBC [1, 9]: 16 µg/mL (≈ 37.5 µM)
IC50 (A172): 526 µM
cells in Q3 (unstained) (AGS cell line [5]; 100 µM): 43.72%
cells in Q4 (PI stained, dead) (AGS cell line [5]; 100 µM): 35.76%
viability at 1 µM (AGS cell line [5]; Homo sapiens, 1 µM, read-out: cells in Q1 (FDA stained, viable)): 81.5%
viability at 10 µM (AGS cell line [5]; Homo sapiens, 10 µM, read-out: cells in Q1 (FDA stained, viable)): 66.4%
viability at 40 µM (AGS cell line [5]; Homo sapiens, 40 µM, read-out: cells in Q1 (FDA stained, viable)): 62.4%
viability at 80 µM (AGS cell line [5]; Homo sapiens, 80 µM, read-out: cells in Q1 (FDA stained, viable)): 41.8%
viability at 100 µM (AGS cell line [5]; Homo sapiens, 100 µM, read-out: cells in Q1 (FDA stained, viable)): 20.2%
cell and nucleus morphology (AGS cell line [6]): broke apart into apoptotic bodies
DNA damage index (DI) (AGS cell line [7]; 48 h, control 52): 183
DNA damage index (DI) (AGS cell line [7]; 72 h, control 20): 259
IC50 (HepaRG): 313 µM

melting point: 184 °C
Compound: Cc1nc(-c2ccccc2)nc(Nc2ccc(F)cc2)c1C=O [Compound 4, 4-(4-fluoroanilino)-6-methyl-2-phenylpyrimidine-5-carbaldehyde]
